Consider 8 compounds from patent US10004701B2, “Methods and compositions for treating infection” (UNIVERSITY OF ROCHESTER, priority 2012, dated 2018).

Counter-ions that a name gives are not always drawn. Like-named read-outs stand apart in the source and are kept apart here.

Common to all, as to experiment: AK assay 384-well format, Prestwick library screening
The subject of one assay is E. faecium. It is filed as cell-based, Enterococcus faecium. The settings on record: 50 μM final drug concentration; for fold induction at 50 µM: Enterococcus faecium, 3 h.
For assay [1], the system named is S. aureus strain USA300-0114. The format is cell-based, Staphylococcus aureus. The conditions noted are these: 50 μM final drug concentration; for fold induction at 50 µM: Staphylococcus aureus, USA300, 3 h.
For the next assay, the system named is K. pneumoniae. The format is cell-based, Klebsiella pneumoniae. The settings on record: 50 μM final drug concentration; for fold induction at 50 µM: Klebsiella pneumoniae, 3 h.
The test system of assay [2] is A. baumannii strain 98-37-09. It is filed as cell-based, Acinetobacter baumannii. The settings on record: 50 μM final drug concentration; for fold induction at 50 µM: Acinetobacter baumannii, 983709, 3 h.
For a further assay, the system named is P. aeruginosa. It is filed as cell-based, Pseudomonas aeruginosa. The settings on record: 50 μM final drug concentration; for fold induction at 50 µM: Pseudomonas aeruginosa, 3 h.
The test system of another assay is E. cloacae. The format is cell-based, Enterobacter cloacae. The conditions noted are these: 50 μM final drug concentration; for fold induction at 50 µM: Enterobacter cloacae, 3 h.
In the next assay the test system is E. coli. The format is cell-based, Escherichia coli. The conditions noted are these: 50 μM final drug concentration; for fold induction at 50 µM: Escherichia coli, 3 h.
[3] abbreviates: 384-well format, cutoff for positive-scoring molecules 3-fold increase, read-out: AK-based Prestwick Library Screening Results, E. faecium (increase in extracellular AK activity).
Where [4] appears, read: 384-well format, cutoff for positive-scoring molecules 3-fold increase, read-out: AK-based Prestwick Library Screening Results, S. aureus (increase in extracellular AK activity).
Setting [5] is: 384-well format, cutoff for positive-scoring molecules 3-fold increase, read-out: AK-based Prestwick Library Screening Results, K. pneumoniae (increase in extracellular AK activity).
Setting [6] is: 384-well format, cutoff for positive-scoring molecules 3-fold increase, read-out: AK-based Prestwick Library Screening Results, A. baumannii (increase in extracellular AK activity).
Where [7] appears, read: 384-well format, cutoff for positive-scoring molecules 3-fold increase, read-out: AK-based Prestwick Library Screening Results, P. aeruginosa (increase in extracellular AK activity).
The mark [8] stands for this setting: 384-well format, cutoff for positive-scoring molecules 3-fold increase, read-out: AK-based Prestwick Library Screening Results, E. cloacae (increase in extracellular AK activity).
Where [9] appears, read: 384-well format, cutoff for positive-scoring molecules 3-fold increase, read-out: AK-based Prestwick Library Screening Results, E. coli (increase in extracellular AK activity).

Regarding `CN(C)CCCN1c2ccccc2CCc2ccc(Cl)cc21` [Clomipramine hydrochloride], the fold induction at 50 µM came out at 1.1 in the assay with E. faecium (setting [3]); 0.8 in assay [1] (setting [4]); 0.7 in the assay with K. pneumoniae (setting [5]); 1 in assay [2] (setting [6]); 0.9 in the assay with P. aeruginosa (setting [7]); 1 with E. cloacae (setting [8]). Further, the fold induction at 50 µM with E. coli (setting [9]) amounted to 1.1.

For the compound `CCC1=C[C@@H]2CN3CCc4c([nH]c5ccccc45)[C@@](C(=O)OC)(C2)[C@@H]13` [Catharanthine], in the assay on E. faecium (384-well format, […]), the “AK-based Prestwick Library Screening Results, E. faecium (increase in extracellular AK activity)” value worked out at 1.0. In addition, the “AK-based Prestwick Library Screening Results, S. aureus (increase in extracellular AK activity)” value in assay [1] (384-well format, […]) worked out at 0.8. Besides, the “AK-based Prestwick Library Screening Results, K. pneumoniae (increase in extracellular AK activity)” value with K. pneumoniae (384-well format, […]) came to 0.8. The “AK-based Prestwick Library Screening Results, A. baumannii (increase in extracellular AK activity)” value in assay [2] (384-well format, […]) amounted to 0.8. Further, the “AK-based Prestwick Library Screening Results, P. aeruginosa (increase in extracellular AK activity)” value with P. aeruginosa (384-well format, […]) is given as 0.7. Further, the “AK-based Prestwick Library Screening Results, E. cloacae (increase in extracellular AK activity)” value in the assay with E. cloacae (384-well format, […]) was determined as 1.0. Moreover, the “AK-based Prestwick Library Screening Results, E. coli (increase in extracellular AK activity)” value in the assay with E. coli (384-well format, […]) is reported as 1.0.

Regarding `CC[C@@H]1C(=O)OC[C@@H]1Cc1cncn1C` [Pilocarpine nitrate], the fold induction at 50 µM in the assay on E. faecium (planktonic, cutoff for positive 3-fold increase, read-out: AK-based Prestwick Library Screening Results, E. faecium (fold increase in extracellular AK activity)) is 1.1; in assay [1] (planktonic, cutoff for positive 3-fold increase, read-out: AK-based Prestwick Library Screening Results, S. aureus (fold increase in extracellular AK activity)), 1.3; with K. pneumoniae (planktonic, cutoff for positive 3-fold increase, read-out: AK-based Prestwick Library Screening Results, K. pneumoniae (fold increase in extracellular AK activity)), 0.9; in assay [2] (planktonic, cutoff for positive 3-fold increase, read-out: AK-based Prestwick Library Screening Results, A. baumannii (fold increase in extracellular AK activity)), 1; in the assay with P. aeruginosa (planktonic, cutoff for positive 3-fold increase, read-out: AK-based Prestwick Library Screening Results, P. aeruginosa (fold increase in extracellular AK activity)), 1; in the assay with E. cloacae (planktonic, cutoff for positive 3-fold increase, read-out: AK-based Prestwick Library Screening Results, E. cloacae (fold increase in extracellular AK activity)), 1.5. In addition, in the assay on E. coli (planktonic, cutoff for positive 3-fold increase, read-out: AK-based Prestwick Library Screening Results, E. coli (fold increase in extracellular AK activity)), the fold induction at 50 µM worked out at 1.

Consider `CC(=O)Nc1cc2ccccc2oc1=O` [Compound 3-Acetamidocoumarin, 3-Acetamidocoumarin], for which the fold induction at 50 µM in the assay with E. faecium (cutoff for positive-scoring molecules 3-fold increase, read-out: AK-based Prestwick Library Screening Results, E. faecium (fold increase in extracellular AK activity)) amounted to 0.8; in assay [1] (cutoff for positive-scoring molecules 3-fold increase, read-out: AK-based Prestwick Library Screening Results, S. aureus (fold increase in extracellular AK activity)) it was 0.4; in the assay on K. pneumoniae (cutoff for positive-scoring molecules 3-fold increase, read-out: AK-based Prestwick Library Screening Results, K. pneumoniae (fold increase in extracellular AK activity)) it was 0.4; in assay [2] (cutoff for positive-scoring molecules 3-fold increase, read-out: AK-based Prestwick Library Screening Results, A. baumannii (fold increase in extracellular AK activity)) it was 0.4; in the assay with P. aeruginosa (cutoff for positive-scoring molecules 3-fold increase, read-out: AK-based Prestwick Library Screening Results, P. aeruginosa (fold increase in extracellular AK activity)) it was 0.4; with E. cloacae (cutoff for positive-scoring molecules 3-fold increase, read-out: AK-based Prestwick Library Screening Results, E. cloacae (fold increase in extracellular AK activity)), 0.4. The fold induction at 50 µM in the assay on E. coli (cutoff for positive-scoring molecules 3-fold increase, read-out: AK-based Prestwick Library Screening Results, E. coli (fold increase in extracellular AK activity)) was determined as 0.5.

With `C#CCN(C)CCCOc1ccc(Cl)cc1Cl` [Clorgyline hydrochloride], the fold induction at 50 µM came to 0.7 in the assay with E. faecium (planktonic E. faecium, cutoff for positive-scoring molecules 3-fold increase, read-out: AK-based Prestwick Library Screening Results, E. faecium (increase in extracellular AK activity)); 0.5 in assay [1] (planktonic S. aureus, cutoff for positive-scoring molecules 3-fold increase, read-out: AK-based Prestwick Library Screening Results, S. aureus (increase in extracellular AK activity)); 0.5 with K. pneumoniae (planktonic K. pneumoniae, cutoff for positive-scoring molecules 3-fold increase, read-out: AK-based Prestwick Library Screening Results, K. pneumoniae (increase in extracellular AK activity)); 0.6 in assay [2] (planktonic A. baumannii, cutoff for positive-scoring molecules 3-fold increase, read-out: AK-based Prestwick Library Screening Results, A. baumannii (increase in extracellular AK activity)); 0.7 in the assay with P. aeruginosa (planktonic P. aeruginosa, cutoff for positive-scoring molecules 3-fold increase, read-out: AK-based Prestwick Library Screening Results, P. aeruginosa (increase in extracellular AK activity)); 0.8 in the assay with E. cloacae (planktonic E. cloacae, cutoff for positive-scoring molecules 3-fold increase, read-out: AK-based Prestwick Library Screening Results, E. cloacae (increase in extracellular AK activity)). The fold induction at 50 µM in the assay with E. coli (planktonic E. coli, cutoff for positive-scoring molecules 3-fold increase, read-out: AK-based Prestwick Library Screening Results, E. coli (increase in extracellular AK activity)) worked out at 0.7.

Turning to `Cc1cc(C(C)(C)C)c(O)c(C)c1CC1=NCCN1` [Oxymetazoline hydrochloride], the fold induction at 50 µM in the assay with E. faecium (planktonic E. faecium, 384-well, cutoff for positive-scoring molecules 3-fold increase, read-out: AK-based Prestwick Library Screening Results: E. faecium (increase in extracellular AK activity)) was 1; in assay [1] (planktonic S. aureus, 384-well, cutoff for positive-scoring molecules 3-fold increase, read-out: AK-based Prestwick Library Screening Results: S. aureus (increase in extracellular AK activity)), 1.1; in the assay on K. pneumoniae (planktonic K. pneumoniae, 384-well, cutoff for positive-scoring molecules 3-fold increase, read-out: AK-based Prestwick Library Screening Results: K. pneumoniae (increase in extracellular AK activity)), 1.1; in assay [2] (planktonic A. baumannii, 384-well, cutoff for positive-scoring molecules 3-fold increase, read-out: AK-based Prestwick Library Screening Results: A. baumannii (increase in extracellular AK activity)), 1.4; in the assay with P. aeruginosa (planktonic P. aeruginosa, 384-well, cutoff for positive-scoring molecules 3-fold increase, read-out: AK-based Prestwick Library Screening Results: P. aeruginosa (increase in extracellular AK activity)) it was 1.2; in the assay with E. cloacae (planktonic E. cloacae, 384-well, cutoff for positive-scoring molecules 3-fold increase, read-out: AK-based Prestwick Library Screening Results: E. cloacae (increase in extracellular AK activity)), 1.3. Moreover, the fold induction at 50 µM with E. coli (planktonic E. coli, 384-well, cutoff for positive-scoring molecules 3-fold increase, read-out: AK-based Prestwick Library Screening Results: E. coli (increase in extracellular AK activity)) is 1.1.

On to `O=C(CCCN1CCC(O)(c2ccc(Cl)cc2)CC1)c1ccc(F)cc1` [Haloperidol], for which the fold induction at 50 µM amounted to 0.9 in the assay with E. faecium (setting [3]); 0.8 in assay [1] (setting [4]); 0.6 in the assay with K. pneumoniae (setting [5]); 1 in assay [2] (setting [6]); 0.9 in the assay with P. aeruginosa (setting [7]); 1.1 in the assay with E. cloacae (setting [8]). The fold induction at 50 µM with E. coli (setting [9]) came to 0.9.

In the case of `CN1C(C)(C)CCCC1(C)C` [Pempidine tartrate], the fold induction at 50 µM stood at 1 in the assay with E. faecium (planktonic, […], read-out: AK-based Prestwick Library Screening Results, E. faecium (fold increase in extracellular AK activity)); 1.1 in assay [1] (planktonic, […], read-out: AK-based Prestwick Library Screening Results, S. aureus (fold increase in extracellular AK activity)); 1 in the assay on K. pneumoniae (planktonic, […], read-out: AK-based Prestwick Library Screening Results, K. pneumoniae (fold increase in extracellular AK activity)); 1.1 in assay [2] (planktonic, […], read-out: AK-based Prestwick Library Screening Results, A. baumannii (fold increase in extracellular AK activity)); 1.1 in the assay on P. aeruginosa (planktonic, […], read-out: AK-based Prestwick Library Screening Results, P. aeruginosa (fold increase in extracellular AK activity)); 1.5 in the assay on E. cloacae (planktonic, […], read-out: AK-based Prestwick Library Screening Results, E. cloacae (fold increase in extracellular AK activity)). Moreover, the fold induction at 50 µM with E. coli (planktonic, […], read-out: AK-based Prestwick Library Screening Results, E. coli (fold increase in extracellular AK activity)) was found to be 1.1.
